Measurements from patent EP4617268A1, “QUINAZOLINE DERIVATIVES” (Kyoto University, priority 2022, dated 2024).

These molecules were tested on IKBKAP-FD exon 20 inclusion (IKBKAP gene, IVS20+6T>C mutation) (assay: SPREADD reporter system for the IKBKAP splicing mutation (exon 20 skipping, IVS20+6T>C) in transfected HeLa cells, GFP/RFP ratio). Conditions: Homo sapiens, 24 h; HeLa cells transfected with SPREADD reporter construct; fluorescence measured one day later; IKBKAP-FD exon 20 inclusion rate by GFP/RFP ratio; %GFP of 20 pM 2-chloro-6-(2-furylmethyl)purine set to 100%.
Format: cell-based
Procedure: A SPREADD reporter system for a splicing mutation of the IKBKAP gene in familial dysautonomia was prepared, as illustrated in FIG. 1. In this reporter system, GFP is expressed when the gene undergoes normal splicing, while RFP is expressed when the gene undergoes abnormal splicing (exon skipping).
HeLa cells transfected with the prepared SPREADD reporter construct were brought into contact with the compounds listed in Table 2 below and cultured (concentrations: 22.86237 nM, 68.58711 nM, 205.7613 nM, 617.284 nM, 1851.852 nM, 5555.556 nM, 16666.67 nM, or 50000 nM). One day later, fluorescence was measured using All-in-One Fluorescence Microscope BZ-X700 (Keyence Corp.), and the IKBKAP-FD exon 20 inclusion rate was quantified by the GFP/RFP ratio of the IKBKAP-FD reporter. […] The EC50 was determined with %GFP of 20 pM 2-chloro-6-(2-furylmethyl)purine set to 100%. Regression analysis for determining EC50 was performed using GraphPad Prism 7.05.

| Structure (SMILES) | EC50 [µM] |
| --- | --- |
| COc1cc2nc(Cl)nc(NCc3nccs3)c2cc1OC [Example 4, 2-Chloro-6,7-dimethoxy-N-(1,3-thiazol-2-ylmethyl)quinazolin-4-amine] | 35.9 |
| COc1cc2nc(Cl)nc(NCc3ccncc3)c2cc1OC [Example 5, 2-Chloro-6,7-dimethoxy-N-(pyridin-4-ylmethyl)quinazolin-4-amine] | 4.2 |
| COc1cc2nc(Cl)nc(NCc3ncco3)c2cc1OC [Example 6, 2-Chloro-6,7-dimethoxy-N-(1,3-oxazol-2-ylmethyl)quinazolin-4-amine] | 5.7 |
| COc1cc2nc(Cl)nc(NCc3cc[nH]c3)c2cc1OC [Example 7, 2-Chloro-6,7-dimethoxy-N-(1H-pyrrol-3-ylmethyl) quinazolin-4-amine] | 21.9 |
| COc1cc2nc(Cl)nc(NCc3ccoc3)c2cc1OC [Example 8, 2-Chloro-N-(furan-3-ylmethyl)-6,7-dimethoxyquinazolin-4-amine] | 20 |
| COc1ccc2nc(Cl)nc(NCc3ccco3)c2c1 [Example 11, 2-Chloro-N-(furan-2-ylmethyl)-6-methoxyquinazolin-4-amine] | 8 |
| COc1ccc2nc(Cl)cc(NCc3ccco3)c2c1 [Example 13, 2-Chloro-N-(furan-2-ylmethyl)-6-methoxyquinolin-4-amine] | 4.39 |
| COc1cc2nc(Cl)nc(NCc3ccco3)c2cc1OCCN1CCOCC1 [Example 20, 2-Chloro-N-(furan-2-ylmethyl)-7-methoxy-6-[2-(morpholin-4-yl)ethoxy] quinazolin-4-amine] | 8.34 |
| COc1cc2nc(Cl)nc(NCc3ccco3)c2cc1OCCCN1CCOCC1 [Example 21, 2-Chloro-N-(furan-2-ylmethyl)-7-methoxy-6-[3-(morpholin-4-yl)propoxy]quinazolin-4-amine] | 8.5 |
| COc1cc2nc(Cl)nc(NCc3ccco3)c2cc1OCCC1CS(=O)(=O)C1 [Example 22, 2-Chloro-6-[2-(1,1-dioxidothiethan-3-yl)ethoxy]-N-(furan-2-ylmethyl)-7-methoxyquinazolin-4-amine] | 14.5 |
| COc1cc2nc(Cl)nc(NCc3ccco3)c2cc1OCCC(=O)O [Example 28, 3-({2-Chloro-4-[(furan-2-ylmethyl)amino]-7-methoxyquinazolin-6-yl}oxy)propanoic acid] | > 50 |
| COC(=O)CCOc1cc2c(NCc3ccco3)nc(Cl)nc2cc1OC [Example 29, Methyl 3-({2-chloro-4-[(furan-2-ylmethyl)amino]-7-methoxyquinazolin-6-yl}oxy)propanoate] | 6.41 |
| COC(=O)COc1cc2c(NCc3ccco3)nc(Cl)nc2cc1OC [Example 30, Methyl ({2-chloro-4-[(furan-2-ylmethyl)amino]-7-methoxyquinazolin-6-yl}oxy)acetate] | 26.4 |
| CNCCOc1cc2nc(Cl)nc(NCc3ccco3)c2cc1OC [Example 32, 2-Chloro-N-(furan-2-ylmethyl)-6-methoxy-7-[2-(methylamino)ethoxy]quinazolin-4-amine] | 4.29 |
| CCOc1cc2nc(Cl)nc(NCc3ccco3)c2cc1OC [Example 33, 2-Chloro-7-ethoxy-N-(furan-2-ylmethyl)-6-methoxyquinazolin-4-amine] | 3.65 |

Molecules with a lower EC50, results first:

| EC50 [µM] | Structure (SMILES) |
| --- | --- |
| 2.1 | COc1cc2nc(Cl)nc(NCc3ccco3)c2cc1OC [Example 1, 2-Chloro-N-(furan-2-ylmethyl)-6,7-dimethoxyquinazolin-4-amine] |
| 2.12 | COc1cc2nc(Cl)nc(NCc3cccs3)c2cc1OC [Example 2, 2-Chloro-6,7-dimethoxy-N-(thiophen-2-ylmethyl)quinazolin-4-amine] |
| 2.82 | COc1cc2nc(Cl)nc(NCc3ccsc3)c2cc1OC [Example 3, 2-Chloro-6,7-dimethoxy-N-(thiophen-3-ylmethyl)quinazolin-4-amine] |
| 3.34 | COc1cc2nc(Cl)nc(NCc3ccccn3)c2cc1OC [Example 9, 2-Chloro-6,7-dimethoxy-N-(pyridin-2-ylmethyl)quinazolin-4-amine] |
| 2.9 | COc1ccc2c(NCc3ccco3)nc(Cl)nc2c1 [Example 10, 2-Chloro-N-(furan-2-ylmethyl)-7-methoxyquinazolin-4-amine] |
| 1.08 | COc1ccc2c(NCc3ccco3)cc(Cl)nc2c1 [Example 12, 2-Chloro-N-(furan-2-ylmethyl)-7-methoxyquinolin-4-amine] |
| 1.37 | CCOc1cc2c(NCc3ccco3)nc(Cl)nc2cc1OC [Example 14, 2-Chloro-6-ethoxy-N-(furan-2-ylmethyl)-7-methoxyquinazolin-4-amine] |
| 0.6 | CCCOc1cc2c(NCc3ccco3)nc(Cl)nc2cc1OC [Example 15, 2-Chloro-N-(furan-2-ylmethyl)-7-methoxy-6-propoxyquinazolin-4-amine] |
| 2.49 | COc1cc2nc(Cl)nc(NCc3ccco3)c2cc1OC(C)C [Example 16, 2-Chloro-N-(furan-2-ylmethyl)-7-methoxy-6-(propan-2-yloxy)quinazolin-4-amine] |
| 3.06 | COCCOc1cc2c(NCc3ccco3)nc(Cl)nc2cc1OC [Example 17, 2-Chloro-N-(furan-2-ylmethyl)-7-methoxy-6-(2-methoxyethoxy)quinazolin-4-amine] |
| 1.6 | COc1cc2nc(Cl)nc(NCc3ccco3)c2cc1OCC1CC1 [Example 18, 2-Chloro-6-(cyclopropylmethoxy)-N-(furan-2-ylmethyl)-7-methoxyquinazolin-4-amine] |
| 0.17 | COc1cc2nc(Cl)nc(NCc3ccco3)c2cc1OCC1COC1 [Example 19, 2-Chloro-N-(furan-2-ylmethyl)-7-methoxy-6-(oxetan-3-ylmethoxy)quinazolin-4-amine] |
| 0.53 | COc1cc2nc(Cl)nc(NCc3ccco3)c2cc1OCCN [Example 23, 6-(2-Aminoethoxy)-2-chloro-N-(furan-2-ylmethyl)-7-methoxyquinazolin-4-amine] |
| 0.48 | CNCCOc1cc2c(NCc3ccco3)nc(Cl)nc2cc1OC [Example 24, 2-Chloro-N-(furan-2-ylmethyl)-7-methoxy-6-[2-(methylamino)ethoxy]quinazolin-4-amine] |
| 0.79 | COc1cc2nc(Cl)nc(NCc3ccco3)c2cc1OCCN(C)C [Example 25, 2-Chloro-6-[2-(dimethylamino)ethoxy]-N-(furan-2-ylmethyl)-7-methoxyquinazolin-4-amine] |
| 0.82 | COc1cc2nc(Cl)nc(NCc3ccco3)c2cc1OCCO [Example 26, 2-({2-Chloro-4-[(furan-2-ylmethyl)amino]-7-methoxyquinazolin-6-yl}oxy)ethanol] |
| 2.02 | COc1cc2nc(Cl)nc(NCc3ccco3)c2cc1OCC1COCCO1 (stereo not drawn) [Example 27, 2-Chloro-6-(1,4-dioxan-2-ylmethoxy)-N-(furan-2-ylmethyl)-7-methoxyquinazolin-4-amine] |
| 3.15 | COc1cc2c(NCc3ccco3)nc(Cl)nc2cc1OCCN [Example 31, 7-(2-Aminoethoxy)-2-chloro-N-(furan-2-ylmethyl)-6-methoxyquinazolin-4-amine] |
